Data from PMC4887716 (Iranian Journal of Basic Medical Sciences, 2016).
Where two headings read alike, the source gives them in different places.

How the values were obtained:
[1] = cited from earlier work
Caco-2 cells = assay: In vitro cytotoxicity study; format: cell-based, human; conditions: clemastine 0.01-10 µM, 24 hr incubation
P-gp [2] = conditions: MDR-MDCK cells; cited from earlier work
P-gp [3] = assay: In situ single pass intestinal perfusion; conditions: for increase of digoxin Peff: in situ SPIP
[4] = cited from earlier work; remark: listed apart in the source
P-gp [5] = conditions: cited from earlier work

SMILES | solubility in water [1] | cytotoxic effect on Caco-2 cells (cell viability, MTT) (Caco-2 cells) | P-gp substrate status from efflux in presence of cyclosporine-A (P-gp [2]) | increase of digoxin Peff (P-gp [3]; 0.5 µM clemastine) | increase of digoxin Peff (P-gp [3]; 10 µM clemastine) | elimination half-life [4] | therapeutic level in blood plasma [4] | therapeutic level in blood plasma ([4]; converted from ng/ml) | P-gp substrate classification (P-gp [5]) | Peff of digoxin alone (control) (P-gp [3]; 20 µM digoxin, rat jejunum SPIP)
CN1CCC[C@@H]1CCO[C@](C)(c1ccccc1)c1ccc(Cl)cc1 [clemastine] | very slightly soluble in water | no cytotoxic effect | clemastine is a P-gp substrate | about 65% | ~165% | approximately 21 hr | 0.7 to 2 ng/mL | 1.5 to 4.4 nM | non-P-gp-substrate | –
C[C@H]1O[C@@H](O[C@H]2[C@@H](O)C[C@H](O[C@H]3[C@@H](O)C[C@H](O[C@H]4CC[C@@]5(C)[C@H](CC[C@@H]6[C@@H]5C[C@@H](O)[C@]5(C)[C@@H](C7=CC(=O)OC7)CC[C@]65O)C4)O[C@@H]3C)O[C@@H]2C)C[C@H](O)[C@@H]1O [digoxin] | – | – | – | – | – | – | – | – | – | 3.4±0.8 ×10^-5cm/s
